Laboratory results reported in paper PMC5382548 (Scientific Reports, 2015).

Columns and labels:
[1] = test system: colon cancer cell lines with mutated KRAS; test: Anti-proliferative activity, colon cancer cell lines with mutated KRAS; type: cell-based; conditions: Homo sapiens; range over HCT116 and SW620
From the text: These differences may be due to differing effects on cellular proliferation mechanisms, on cellular uptake and/or intracellular distribution. Assuming a passive diffusion membrane transport for IQcs, compound 2d is expected to accumulate more inside cells due to its predicted higher lipophilicity than compounds with an additional protonated basic group at physiologic pH (3d and 3e). Similarly, the tetra-cationic porphyrin TMPyP4, which is known to have low cell-membrane permeability, gave higher IC50 values.
HCT116 human colon carcinoma cells, SW620 human colorectal adenocarcinoma and HEK293 T human embryonic kidney cells were grown in Dulbecco's modified Eagle's medium (DMEM) supplemented with 10% fetal bovine serum, and 1% antibiotic/antimycotic (Invitrogen, Grand Island, NY, USA) and maintained at 37°C in a humidified atmosphere of 5% CO2. […] Following 72 h of compound exposure, cell viability was evaluated using the CellTiter 96 AQueous Non-Radioactive Cell Proliferation Assay (Promega, Madison, WI, USA), using 3-(4,5-dimethylthiazol-2-yl)-5-(3-carboxymethoxyphenyl)-2-(4-sulfophenyl)-2H-tetrazolium, inner salt (MTS) as previously described. Cell viability data were expressed as mean ± SEM or mean ± SD from at least three independent experiments. IC50 and IC65 values were determined using GaphPad Prism v.5.00 (GraphPad Software). […]

[2] = test system: SW620 metastatic colon cancer cells; test: Guava ViaCount assay, SW620; type: cell-based, human; conditions: IC65 concentration, 72 h
From the text: The ability of IQcs to induce cell death in colon cancer cell lines with different genotypes (HCT116 and SW620) and in the non-malignant cell line HEK293T was studied by a Guava Via Count assay and compared with the behaviour of 5-FU and TMPyP4 at equitoxic concentrations (IC50 and IC65). Results in Figure 7 show dose-dependent induction of cell death, mainly by apoptosis, by all tested compounds in the HCT116 colon cancer cell line. […] In SW620 metastatic colon cancer cells, cell death induction was highly dependent on the number and position of side chains in IQc compounds. […]
Figure 7 Evaluation of the effect of IQc on cell viability using the ViaCount assay. […] Results are expressed as the mean percentage (%) of viable (white), mid-apoptotic (grey) and dead (black) cells ± SEM, of at least three different experiments, for (a) IC50, and for (b) IC65 compound concentrations. a, p < 0.05; b, p < 0.01 from DMSO (vehicle control); c, p < 0.05; and d, p < 0.01 from 5-FU. […]
Taqman Real-time PCR reactions were performed using 1.5 µg of total RNA, using High Capacity RNA to cDNA kit, according to the manufacturer`s instruction. […] The comparative threshold cycle method was used to calculate the amplification factor, where the threshold cycle (Ct) is defined as the cycle number at which the fluorescence passes the fixed threshold intensity level. […]

[3] = test system: KRAS21R (DNA, G4) AGGGCGGTGTGGGAAGAGGGA; test: spectrofluorimetric titration, one-site saturation fit; conditions: 60 mM K+; K-cacodylate pH 7.4, 25 °C; 1 μM compound; SD ≤ 0.2 × 10^6
[4] = test system: 26ds (ds26) (DNA, duplex) CAATCGGATCGAATTCGATCCGATTG; test: as above; conditions: 60 mM K+; K-cacodylate pH 7.4, 25 °C; 1 μM compound; SD ≤ 0.2 × 10^6

## CCN(CC)CCCNc1ccc2c(c1)c1[nH]c3ccccc3c1c[n+]2C [2d]
[1]
  IC50: 140 to 500 nM

## C[n+]1ccc(-c2c3nc(c(-c4cc[n+](C)cc4)c4ccc([nH]4)c(-c4cc[n+](C)cc4)c4ccc([nH]4)c(-c4cc[n+](C)cc4)c4nc2C=C4)C=C3)cc1 [TMPyP4, reference compound]
[2]
  Cell death induced, SW620: > 20%

## Cn1cc2c3ccccc3nc-2c2cc(Br)ccc21 [2a, 2-bromo-5-methyl-indolo[3,2-c]quinoline]
[3]
  Ka: 1.7e+06 M⁻¹
[4]
  Ka: 800000 M⁻¹
